Test results from US20210393735A1, “PHARMACEUTICAL COMPOSITION COMPRISING TEICOPLANIN” (GALENUS G.H. AG, priority 2018, published 2021).

Key:
[1] = system: Gram-positive bacteria such as staphylococci (including methicillin-resistant strains), streptococci, enterococci and many anaerobic Gram-positive bacteria; details: Campoli-Richards et al. 1990 [2]; cited from earlier work
[2] = Phase-1 open cross-over cohort study in healthy subjects: conventional vs novel teicoplanin dosage regimen (pharmacokinetics, tolerability); type: in vivo, human (healthy subjects)
Protocol: Teicoplanin: Conventional Dosage Regimen as Compared to the Novel Dosage Regimen
Phase-1 Study in Healthy Subjects
The study is performed as an open, cross over cohort-study after having received ethical approval and written consent by the participating 6 healthy subjects (3 males and 3 females). The principle study design of Outman et al (1990 [4]) is used with the following modification: 6 loading doses are followed by the maintenance dosing phase up to a total of 6 days.
In the first cross over comparative study, the following two dosage regimens are used:
Regimen A1: 6 loading dosages of 400 mg twice daily (bid) followed by 3 dosages of 400 mg once daily (total 6 days): total dosage 3600 mg
Regimen B1: first loading dose 800 mg followed by 4 dosages 400 mg bid, followed by 6 dosages 200 mg bid (total 6 days): total dosage 3600 mg.
In the second cross over comparative study, the following two dosage regimens are used:
Regimen A2: 6 loading dosages of 800 mg bid followed by 3 dosages of 800 mg once daily (total 6 days): total dosage 7200 mg
Regimen B2: 6 loading dosages of 800 mg bid followed by 6 dosages 400 mg bid (total 6 days): total dosage 7200 mg.

[3] = system: clinical isolates of Clostridium difficile; details: isolates from patients with hospital or community acquired CDI; Jamal, Rotimi 2016 [3]; cited from earlier work
[4] = in vivo; cited from earlier work
[5] = overall, no significant difference between regimens A and B in both studies

In the case of teicoplanin, the susceptibility in vitro [1] is given as “susceptible”, the “phlebitis or renal, hepatic, or ototoxicity” value ([2]; 1st and 2nd study) is given as “no evidence” and the tolerability ([2]; 1st and 2nd study, both dosing regimens) is given as “generally well tolerated”. For the same substance, the trough levels ([2]; 1st study, 1st day, regimen A1 (6 x 400 mg bid, then 3 x 400 mg once daily)) was 8 to 15 mg/L, the trough levels ([2]; 1st study, 1st day, regimen B1 (800 mg, then 4 x 400 mg bid, then 6 x 200 mg bid)) was 18 to 25 mg/L and the trough levels ([2]; 1st study, day 4 to 6, regimen A1) was 10 to 18 mg/L. The trough levels ([2]; 1st study, day 4 to 6, regimen B1) was 20 to 30 mg/L, the trough levels ([2]; 2nd study, 1st day, regimen A2 (6 x 800 mg bid, then 3 x 800 mg once daily)) was 14 to 24 mg/L and the trough levels ([2]; 2nd study, 1st day, regimen B2 (6 x 800 mg bid, then 6 x 400 mg bid)) was 25 to 34 mg/L. For the same substance, the trough levels ([2]; 2nd study, day 4 to 6, regimen A2) was 18 to 26 mg/L, the trough levels ([2]; 2nd study, day 4 to 6, regimen B2) was 30 to 38 mg/L and the “higher trough levels with novel vs conventional dosage regimen” value ([2]; at the 1st day (first study only) and from day 4 on) was “about 50%”. For the same substance, the “lightheadedness during the infusion” value ([2]; during infusion of some, but not all, doses, 6 healthy subjects) was “Two subjects experience transient lightheadedness”, the renal clearance [2, 5] was 0.19 ± 0.015 mL/min/kg and the t1/2 [2, 5] was 157+93 h. For the same substance, the total clearance [2, 5] was 0.21 ± 0.018 mL/min/kg, the “activity against clinical isolates” value [3] was “active” and the “terminal half-life, mean (±SD)” value [4] was 157 (±93) hours (h). The “terminal half-life, median (range)” value [4] was 168 (111-278) h.
